Data set [1] concerns airway smooth muscle isolated from guinea pigs. Briefly: Relaxing action to smooth muscle of airway of guinea pigs (histamine-constricted). The class given is cell-based. Particulars: Cavia porcellus; guinea pig airway, constricted with 10^-4 M histamine, cumulative addition; read-out: EC50, concentration showing 50% of the maximum reaction (relaxation). The source says: […] Action to Smooth Muscle of Airway of Guinea Pigs A guinea pig was killed by draining out the blood, the airway was isolated, and four airway pieces having a width of about 1 cm cut along the cartilage were connected by silk yarn to prepare an airway smooth muscle sample. The sample was hung with a load of about 0.5 g in a 5-mL Magnus vessel filled with a Tyrode solution and aerated with a mixed gas (95% O2 and 5% CO2). […] This was repeatedly treated with 10^-5 M of histamine and, after confirming that the constriction became constant, it was treated with 10^-4 M of histamine. After the maximum constriction reaction of the smooth muscle became constant, the test compound was added thereto starting from a low concentration cumulatively to investigate the relaxing action. […] Pat. […] Pat. No. 4,808,587 to Go et al and in U.S. Pat. No. 5,776,942 to Furukawa et al) and theophylline were used as control agents.

For the next data set, the system named is Mice. As to the kind of experiment: Influence on general symptoms of mice (modified Irwin's method). The class given is in vivo. Particulars: for Death: oral, 5 mice per group, until the next day. How it is done: Influence on General Symptoms of Mice
Mice having no abnormality in their appearance before administration of the test drugs were selected, and five mice were used for each group. Oral administration of the test compound was carried out and, 30 minutes, one hour and two hours thereafter, observations were conducted according to the modified method of Irwin's method for observing the general symptoms of mice. Degree of the symptom was evaluated in terms of (+) and (-) and, when the symptom was apparently severe, it was mentioned as (++). Also, death was observed until the next day of the administration.
1) Suppression of spontaneous motility: When mice were transferred from a home cage to a cage for symptom observation and, if motion of the mice was less than the non-administered group at that time, that was evaluated as (+).
2) Muscle relaxation: When forefeet of mice were hung on a wire stretched horizontally so that the mice were hung by means of the forefeet and, if their reaction at that time for climbing up the wire took a longer time than the non-administered group, that was evaluated as (+).
4) Blepharoptosis: If 1/4 or more was closed as compared with the non-administered group, that was evaluated as (+).
5) Salivation: If salivation was noted a little around the mouth, that was evaluated as (+).
6) Death: If dead case was noted, that was mentioned as such.
5-Amino-1,3-diethyl-1,2,3,4-tetrahydropyrido[2,3-d]-pyrimidine-2,4-dione (Control Compound B; a compound mentioned in Japanese Laid-Open Patent Publication Sho-63/45279 and in U.S. Pat. Nos. 4,808,587 and 5,776,942) was used as a control drug.

The test system of data set [2] is smooth muscle of blood vessel isolated from rats. Briefly: Influence on continuous constriction of smooth muscle of blood vessel isolated from rats (noradrenaline-constricted pulmonary main artery). Type of data set: cell-based. Particulars: rat pulmonary main artery, constricted with 10^-7 M noradrenaline, 37° C.; read-out: EC50, concentration showing 50% of the maximum reaction (relaxation). The procedure: Influence on Continuous Constriction of […] Smooth Muscle of Rats
The back of the head of a rat was struck to cause a cerebral concussion, carotid arteries on both sides were immediately cut and the pulmonary main artery was isolated. The isolated artery was fully aerated with a mixed gas (95% O2 and 5% CO2), placed in a Krebs-Henselite solution warmed at 37° C., excessive tissues were removed as much as possible and a spiral sample (having a width of about 2 mm and a length of 15 mm) was prepared according to a method of Furchgott, et al. The blood vessel sample was hung with a load of about 0.5 g in a 5-mL Magnus vessel filled with a Krebs-Henseleit solution and aerated with a mixed gas (95% O2 and 5% CO2). After the sample was allowed to stand for 30 minutes to one hour, it was treated with noradrenaline (final concentration: 10^-7 M) and the constricting reaction was amplified via an amplifier for blood pressure using an FD pickup and recorded on a recorder. Noradrenaline (10^-7 M) was repeatedly applied and, after confirming that the constriction became constant, 10^-7 M of noradrenaline was applied. After the maximum shrinking reaction of the smooth muscle became constant, the test compound was added thereto starting from a low concentration cumulatively to investigate the relaxing action. A dose vs. reaction curve was prepared from the isotonic reaction of various concentrations of the test compound and an EC50, a concentration showing 50% of the maximum reaction, was determined.

Data set [3] in a line: Concentration in blood of guinea pigs. Particulars: oral, 30 mg/kg in 1% methyl cellulose, plasma, HPLC; for AUC / Cmax / half-life / Tmax: guinea pig; for AUC: read-out: AUC 0-lim, area under a curve of concentration in blood vs. time; for Cmax: read-out: Cmax, maximum concentration in blood; for half-life: read-out: T1/2, half life in blood (converted); for Tmax: read-out: Tmax, time required for achieving the maximum concentration in blood. Type of data set: in vivo. How it is done: Concentration in Blood of Guinea Pigs
Each test substance was orally administered at a dose of 30 mg/kg. It was suspended in 1% methyl cellulose and made into a preparation so as to make the administering dose 5 mL/kg. A group consisted of four animals and blood was collected after 30 minutes, 1 hour, 2 hours, 4 hours, 6 hours and 24 hours from the administration. (A feed was given after collection of the blood after 6 hours). Thus, each about […] (corresponding to four capillary tubes) of blood were collected with intervals using a heparintreated capillary tube and plasma was separated by a hematocrit centrifuge to prepare a plasma sample. A plasma sample of about […] was preserved at -80° C. until the measurement. Methanol ([…]) was added to […] of the plasma followed by mixing, the mixture was centrifuged at 1500×g for ten minutes at […] and the separated supernatant liquid was filtered through a membrane filter of […]. The filtrate was used as a sample for an HPLC, analyzed under the analyzing condition that the column was 100 mm×4.6 mm (inner diameter) of TSK-gel Super ODS, the flow rate was 1.0 mL/minute, the column temperature was 40° C., an injection amount was […], detection was done by UV of 225 nm and the mobile phase was water-acetonitrile (75:25 in terms of % by volume) and the maximum concentration in blood (Cmax), time required for achieving the maximum concentration in blood (Tmax), half life in blood (T1/2) and area under a curve of concentration in blood vs. time (AUC 0-lim) were determined. RS-25344 (Cell Signalling, 7(5), 527 (1995); Mol. Pharmacol., 48, 616 (1995)) and CR-77059 (J. Med. Chem., 34, 624 (1991); J. Pharmacol. Exp. Ther., 272, 3,1313 (1995)) were used as control drugs.

Where only a bound is given, the exact number is not on record here.

With `Nc1ccc2c(=O)n(Cc3ccco3)c(=O)n(-c3ccccc3)c2n1` [Compound 38, 7-amino-3-(2-furfuryl)-1,2,3,4-tetrahydro-1-phenylpyrido [2,3-d]pyrimidine-2,4-dione], the EC50 in data set [1] was 40 nM.

Turning to `Nc1ccc2c(=O)n(Cc3ccc(F)cc3)c(=O)n(-c3ccccc3)c2n1` [Compound 29, 7-amino-3-(4-fluorobenzyl)-1,2,3,4-tetrahydro-1-phenylpyrido[2,3-d]pyrimidine-2,4-dione], the EC50 in data set [1] was found to be 76 nM.

In the case of `Cn1c(=O)c2[nH]cnc2n(C)c1=O` [theophylline, reference compound], the EC50 in data set [1] was 51000 nM.

In the case of `Nc1ccc2c(=O)n(Cc3ccncc3)c(=O)n(-c3ccccc3)c2n1` [Compound 17, 7-amino-1,2,3,4-tetrahydro-1-phenyl-3-(4-picolyl) pyrido[2,3-d]pyrimidine-2,4-dione], the EC50 in data set [1] is 19 nM.

For the molecule `CCn1c(=O)c2c(N)ccnc2n(CC)c1=O` [Control Compound B, 5-Amino-1,3-diethyl-1,2,3,4-tetrahydropyrido[2,3-d]-pyrimidine-2,4-dione, reference compound], in the data set with Mice (mouse, in vivo, po, 100 mg/kg), the Blepharoptosis entry is “(+) × 2”, the Muscle relaxation entry was “(+) × 3”, the Passiveness entry is on record as “(+) × 1” and the “Suppression of spontaneous motility” value is given as “(+) × 3”. Also, in the data set with Mice (mouse, in vivo, po, 300 mg/kg), the “Suppression of spontaneous motility” value is recorded as “(+) × 3”. Further, the Death in the data set with Mice (100 mg/kg) is given as 0. The molecule further had a Death in the data set on Mice (300 mg/kg) of 0. Besides, the EC50 in data set [1] worked out at 830 nM.

`Nc1ccc2c(=O)n(Cc3ccccc3)c(=O)n(-c3ccccc3)c2n1` [Compound 16, 7-amino-3-benzyl-1,2,3,4-tetrahydro-1-phenylpyrido[2,3-d]pyrimidine-2,4-dione]: the EC50 in data set [1] was 23 nM; in data set [2] it was 50100 nM.

On to `COc1cc(OC)cc(-n2c(=O)n(Cc3ccccc3)c(=O)c3ccc(N)nc32)c1` [Compound 8, 7-amino-3-benzyl-1-(3,5-dimethoxyphenyl)-1,2,3,4-tetrahydropyrido[2,3-d]pyrimidine-2,4-dione], for which the EC50 in data set [1] amounted to 320 nM.

Regarding `COc1cc(OC)cc(-n2c(=O)n(CC(C)C)c(=O)c3ccc(N)nc32)c1` [Compound 15], in data set [3], the AUC was 134 µg·h/mL, the Cmax came to 10100 ng/mL, the half-life is 9.8 h and the Tmax is 2.3 h. Moreover, the EC50 in data set [1] came out at 210 nM. For the same molecule, the EC50 in data set [2] was greater than 100000 nM.

For the molecule `CCCn1c(=O)c2ccc(N)nc2n(-c2cc(OC)cc(OC)c2)c1=O` [Compound 6, 7-amino-1-(3,5-dimethoxyphenyl)-1,2,3,4-tetrahydro-3-propylpyrido[2,3-d]pyrimidine-2,4-dione], in the data set on Mice (mouse, in vivo, po, 300 mg/kg), the Blepharoptosis result is “(+) × 1” and the “Suppression of spontaneous motility” value is listed as “(+) × 1”. For the same molecule, in the data set with Mice (mouse, in vivo, po, 1000 mg/kg), the Blepharoptosis entry was “(+) × 2”, the Muscle relaxation entry is “(+) × 2” and the “Suppression of spontaneous motility” value was “(+) × 2”. In addition, in the data set with Mice (300 mg/kg), the Death was 0. In addition, the Death with Mice (1000 mg/kg) is listed as 0. Besides, in data set [3], the AUC stood at 256 µg·h/mL, the Cmax stood at 13700 ng/mL, the half-life was 28.4 h and the Tmax came to 4 h. In addition, the EC50 in data set [1] came out at 400 nM. Moreover, in data set [2], the EC50 is greater than 100000 nM.

As for `CCCCn1c(=O)c2ccc(N)nc2n(-c2cc(OC)cc(OC)c2)c1=O` [Compound 7, 7-amino-3-butyl-1-(3,5-dimethoxyphenyl)-1,2,3,4-tetrahydropyrido[2,3-d]pyrimidine-2,4-dione], in the data set on Mice (mouse, in vivo, po, 300 mg/kg), the Blepharoptosis entry was “(+) × 1”, the Muscle relaxation result was “(+) × 2” and the “Suppression of spontaneous motility” value is listed as “(+) × 2”. For the same molecule, the Muscle relaxation result in the data set on Mice (mouse, in vivo, po, 1000 mg/kg) is “(+) × 3”. Also, the Death in the data set on Mice (300 mg/kg) was 0. In addition, in the data set with Mice (1000 mg/kg), the Death is 0. In data set [3], the AUC was found to be 28.6 µg·h/mL, the Cmax came out at 1600 ng/mL, the half-life was 131 h and the Tmax came to 15 h. The EC50 in data set [1] stood at 590 nM.

On to `O=c1c2cccnc2n(-c2cccc([N+](=O)[O-])c2)c(=O)n1Cc1ccncc1` [RS-25344, reference compound], for which the “Concentration in blood (in words, Table 6)” value in data set [3] is “less than identification limit”.

As for `COC(=O)c1cccc(-n2c(=O)n(Cc3ccccc3)c(=O)c3cccnc32)c1` [CP-77059, reference compound], the “Concentration in blood (in words, Table 6)” value in data set [3] was “less than identification limit”.

For `Nc1ccc2c(=O)n(Cc3cccs3)c(=O)n(-c3ccccc3)c2n1` [Compound 37, 7-amino-1,2,3,4-tetrahydro-1-phenyl-3-(2-thienylmethyl)pyrido [2,3-d]pyrimidine-2,4-dione], the EC50 in data set [1] came out at 21 nM.

On to `COc1ccc(Cn2c(=O)c3ccc(N)nc3n(-c3ccccc3)c2=O)cc1` [Compound 28, 7-amino-1,2,3,4-tetrahydro-3-(4-methoxybenzyl)-1-phenylpyrido[2,3-d]pyrimidine-2,4-dione], for which the EC50 in data set [1] was 45 nM.

Regarding `CCn1c(=O)c2ccc(N)nc2n(CC)c1=O` [Control Compound A, 7-Amino-1,3-diethyl-1,2,3,4-tetrahydropyrido-[2,3-d]pyrimidine-2,4-dione, reference compound], the EC50 in data set [1] was 1010 nM.

For the molecule `Nc1ccc2c(=O)n(Cc3ccsc3)c(=O)n(-c3ccccc3)c2n1` [Compound 39, 7-amino-1,2,3,4-tetrahydro-1-phenyl-3-(3-thienylmethyl)pyrido [2,3-d]pyrimidine-2,4-dione], in data set [1], the EC50 amounted to 27 nM.

Turning to `COc1cc(OC)cc(-n2c(=O)n(Cc3ccncc3)c(=O)c3ccc(N)nc32)c1` [Compound 18, 7-amino-1-(3,5-dimethoxyphenyl)-1,2,3,4-tetrahydro-3-(4-picolyl)pyrido[2,3-d]pyrimidine-2,4-dione], the EC50 in data set [1] is 61 nM; in data set [2] it was greater than 100000 nM.

For the origin of these results see US6242452A, “7-aminopyrido[2,3-D]pyrimidine derivatives” (Nippon Zoki Pharmaceutical Co., Ltd., priority 1998, dated 2001).
